Measured values as given in paper PMC3713324, “Polyisoprenylated Methylated Protein Methyl Esterase Is Both Sensitive to Curcumin and Overexpressed in Colorectal Cancer: Implications for Chemoprevention and Treatment” (BioMed Research International, 2013).

Biological target: T1, polyisoprenylated methylated protein methyl esterase (PMPMEase) (Sus scrofa, UniProt Q29550)
T1 construct: purified PMPMEase
T1 sequence (Q29550 19-566): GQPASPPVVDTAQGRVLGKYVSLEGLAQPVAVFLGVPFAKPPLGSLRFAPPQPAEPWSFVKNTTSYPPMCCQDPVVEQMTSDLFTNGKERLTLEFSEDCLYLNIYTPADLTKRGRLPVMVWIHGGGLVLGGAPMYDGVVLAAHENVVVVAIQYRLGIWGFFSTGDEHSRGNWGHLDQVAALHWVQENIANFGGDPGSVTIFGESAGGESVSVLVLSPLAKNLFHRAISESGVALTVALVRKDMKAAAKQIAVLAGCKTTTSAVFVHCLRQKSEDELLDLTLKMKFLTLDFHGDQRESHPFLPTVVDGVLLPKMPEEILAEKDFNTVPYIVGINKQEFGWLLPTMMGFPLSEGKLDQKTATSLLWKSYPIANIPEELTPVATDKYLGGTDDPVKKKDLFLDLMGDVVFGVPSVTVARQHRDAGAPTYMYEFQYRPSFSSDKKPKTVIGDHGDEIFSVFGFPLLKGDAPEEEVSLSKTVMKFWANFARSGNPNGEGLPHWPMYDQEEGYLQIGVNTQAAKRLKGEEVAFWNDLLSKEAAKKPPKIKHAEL
Assay: RP-HPLC assay of RD-PNB hydrolysis by purified enzyme; Michaelis-Menten kinetics; reversibility by gel filtration
Type: biochemical

Ki: 310 nM
SMILES: COc1cc(/C=C/C(=O)CC(=O)/C=C/c2ccc(O)c(OC)c2)ccc1O [curcumin]
